# Laboratory results reported in US20210060016A1, “ANTICANCER AGENT” (JAPANESE FOUNDATION FOR CANCER RESEARCH, priority 2017, published 2021).
# Experiments:
# [1] = tested on: human colorectal cancer cell line COLO-320DM; assay: MTT assay, combination of test compound and other anticancer agents; assay type: cell-based; conditions: Examples 9 to 14, COLO-320DM: test compound added at the concentration shown in FIGS. 9 to 14 to irinotecan (SN-38); survival with only irinotecan = 100%
# Description: The ratio of residual cells in treatment of the human colorectal cancer cell line COLO-320DM with a combination of the compound prepared in each Compound Example (test compound or tankyrase inhibitory compound) and each of the anticancer agents was measured to evaluate the cell killing effect of the combination on the human colorectal cancer cell line COLO-320DM. The combinations of test compounds and anticancer agents are as follows.
# (Example 8): combination of the compound prepared in Compound Example 5 and temozolomide, melphalan, gemcitabine, cytarabine (Ara-C), fluorouracil (5-FU), pemetrexed, mercaptopurine, methotrexate, irinotecan (SN-38), etoposide (VP-16), actinomycin D, daunorubicin, doxorubicin, bleomycin, mitoxantrone, oxaliplatin, carboplatin or cisplatin (Example 9): combination of the compound prepared in Compound Example 110 (G007-LK) and irinotecan (SN-38) (Example 10): combination of the compound prepared in Compound Example 11 and irinotecan (SN-38) (Example 11): combination of the compound prepared in Compound Example 19 and irinotecan (SN-38) (Example 12): combination of the compound prepared in Compound Example 101 and irinotecan (SN-38) (Example 13): combination of the compound prepared in Compound Example 1 and irinotecan (SN-38) (Example 14): combination of the compound prepared in Compound Example 113 and irinotecan (SN-38)
# Commercially available compounds were used for temozolomide (manufactured by Sigma-Aldric), melphalan (manufactured by Signa-Aldrich), gemcitabine (Gemcitabine hydrochloride; manufactured by Sigma-Aldric), cytarabine (Cytosine β-D-arabinofuranoside (Ara-C); manufactured by Sigma-Aldrich), fluorouracil (5-Fluorouracil (5-FU); manufactured by Sigma-Aldrich), pemetrexed (Pemetrexed disodium heptahydrate; manufactured by Sigma-Aldrich), mercaptopurine (6-Mercaptopurine monohydrate; manufactured by Sigma-Aldrich), methotrexate (Methotrexate hydrate; manufactured by Sigma-Aldrich), irinotecan (7-Ethyl-10-hydroxycamptothecin (SN-38); manufactured by Sigma-Aldrich), etoposide (Etoposide (VP-16); manufactured by Enzo Life Sciences, Inc.), actinomycin D (manufactured by nacalai tesque), daunorubicin (Daunorubicin hydrochloride; Calbiochem), doxorubicin (Doxorubicin hydrochloride; manufactured by Sigma-Aldrich), bleomycin (Bleomycin sulfate; manufactured by Enzo Life Sciences, Inc.), mitoxantrone (Mitoxantrone dihydrochloride; manufactured by Sigma-Aldrich), oxaliplatin (manufactured by Sigma-Aldrich), carboplatin (manufactured by Sigma-Aldrich) and cisplatin (manufactured by Enzo Life Sciences, Inc.).
# First, the human colorectal cancer cell line COLO-320DM was suspended in RPMI1640 medium (hereinafter, medium) containing inactivated 10% fetal bovine serum, and the cells were seeded in a 96-well microplate at 350 cells (75 μL) per well. The cells were subjected to stationary culture overnight in a CO2 incubator at 37° C. Thereafter, in Example 8, a medium (25 μL) containing a combination of the compound prepared in Compound Example 5 and each of the anticancer agents was added in triplicate in such a manner that the final concentrations of the test compound (compound prepared in Compound Example 5) were 0 nM or 30 nM and that the final concentrations of each anticancer agent were those shown in Table 14. In Examples 9 to 14, a medium (25 μL) containing a combination of the compound prepared in each of Compound Examples and each of the anticancer agents was added in triplicate in such a manner that the final concentrations of the test compound were 0 nM or those shown in FIGS. 9 to 14. As a control, 25 μL of a medium containing only dimethyl sulfoxide (DMSO) which is a solvent was added. […]
# tankyrase 1 = target: T1, tankyrase 1 (Homo sapiens, UniProt O95271); assay: Tankyrase inhibitory activity test (ELISA, auto-poly(ADP-ribosyl)ation), TNKS1; assay type: biochemical; conditions: Flag-tagged tankyrase 1 (SAM+PARP), read-out: TNKS1 (inhibitory activity against tankyrase 1), IC50 rating
# T1 construct: tankyrase 1 (1,024-1, 327aa, SAM+PARP); made in house; host or cells: cell-free protein expression system
# T1 sequence (O95271 1024-1327): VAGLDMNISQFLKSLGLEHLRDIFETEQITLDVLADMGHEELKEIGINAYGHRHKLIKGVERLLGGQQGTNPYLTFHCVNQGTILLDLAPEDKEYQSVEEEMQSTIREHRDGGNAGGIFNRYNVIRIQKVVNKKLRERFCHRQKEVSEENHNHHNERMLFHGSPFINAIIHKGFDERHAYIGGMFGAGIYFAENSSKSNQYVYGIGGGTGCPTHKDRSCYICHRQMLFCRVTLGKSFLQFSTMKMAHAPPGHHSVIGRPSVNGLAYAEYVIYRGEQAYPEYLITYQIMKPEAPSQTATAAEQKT
# Description: The enzymatic activity of tankyrase 1 and the enzymatic activity of tankyrase 2 were measured by the ELISA method based on assessment of auto-poly(ADP-ribosyl)ation to evaluate the tankyrase inhibitory activity of the compound prepared in each of Compound Examples (test compound) (inhibitory activity against tankyrase 1 (TNKS1) and inhibitory activity against tankyrase 2 (TNKS2)). First, Flag-tagged tankyrase 1 (1,024-1, 327aa, SAM+PARP) and tankyrase 2 (613-1, 116aa, ANK5+SAM+PARP) were synthesized with a cell-free protein expression system, and diluted with a Tris buffer solution (50 mM Tris-HCl (pH 8.0), 150 mM NaCl, 10% glycerol). 50 μL of the diluted tankyrase 1 or tankyrase 2 was added to a plate with an anti-FLAG M2 monoclonal antibody immobilized thereon (Anti-FLAG High-Sensitivity M2-Coated Plate) (Sigma-Aldrich), and the mixture was left to stand overnight at 4° C. Thereafter, the plate was washed four times with a PBS (PBST) buffer containing 0.1% TritonX-100.
# Subsequently, the test compound diluted with an assay buffer (50 mM Tris-HCl (pH 8.0), 4 mM MgCl2, 0.2 mM DTT) (DMSO was used as a control) was added to each well of the plate, and the mixture was left to stand at room temperature for 10 minutes. Thereafter, a biotin-labeled NAD solution (225 μM NAD, 25 μM 6-Biotin-17-NAD (Travigen, Inc.)) was added and mixed as a donor substrate, and the mixture was reacted at 30° C. for 45 minutes. To blank wells was added distilled water instead of the biotin-labeled NAD solution. After the reaction, the plate was washed with a PBST buffer four times. Thereafter, HRP (horseradish peroxidase)-labeled streptavidin (Travigen, Inc.) was diluted with a PBS buffer by 1,000 times, and added to each well, and the mixture was reacted at room temperature for 20 minutes. The plate was washed with a PBST buffer four times, a chemiluminescent substrate solution TACS-Sapphire (Travigen, Inc.) was then added to each well, the mixture was reacted at room temperature for 20 minutes, and thechemiluminescence intensity was measured using a chemiluminescence measuring apparatus.
# The residual enzymatic activity in the presence of the test compound was determined from the following expression. On the basis of the residual enzymatic activity at each of multiple concentrations of the test compound, the enzyme inhibitory activity was calculated in terms of a 50%-inhibition concentration (IC50 value) using data analysis software Origin (LightStone Corp.). Residual activity (%)={(chemiluminescence intensity with test compound added)−(chemiluminescence intensity of blank)}/{(chemiluminescence intensity of control)−(chemiluminescence intensity of blank))
IC50 (tankyrase 1),Compound,cell survival rate [1]
< 20 nM,"CCOc1ccc(-c2n[nH]nc2[C@H]2NC(=O)c3cccc(C)c3N2)cc1 [Compound Example 101, (2R)-2-[5-(4-Ethoxyphenyl)-2H-1,2,3-triazol-4-yl]-8-methyl-2,3-dihydro-1H-quinazolin-4-one]",about 50%
< 20 nM,"COc1ccc(-c2c[nH]nc2C2NC(=O)c3cccc(C)c3N2)cc1 (stereo not shown) [Compound Example 113, 2-[4-(4-Methoxyphenyl)-1H-pyrazol-3-yl]-8-methyl-2,3-dihydro-1H-quinazolin-4-one]",about 50%
